Measured values published in patent US6914045B2, “Glycopeptide antibiotics” (Wyeth Holdings Corporation, priority 2001, dated 2005).
Values after ≈ are worked out from the molar mass of the structure shown.

Legend:
[1] = test system: Staphylococcus aureus-SMITH (GC 4543); experiment: acute lethal infection in mice; type: in vivo; details: acute lethal infection, female CD-1 mice, intraperitoneal challenge, intravenous 30 min. after infection, 7 day survival
Procedure, shortened: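 Intraperitoneal challenge of female CD-1 mice with a bacterial dose lethal to untreated animals within 24-48 hr; single iv treatment 30 min later, 5 mice per dose level. Survival is scored at day 7 and pooled from three experiments to give the median effective dose.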

Escherichia coli = experiment: in vitro antibacterial evaluation, MIC by broth dilution; type: cell-based; details: 18 hours at 35° C.
Procedure, shortened: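 Following National Committee for Clinical Laboratory Standards recommendations (M7-A2), susceptibility was measured by dilution in Muller-Hinton II […]. Bacteria were seeded at 5×10^5 CFU/mL against compound concentrations from 64 down to 0.06 μg/mL.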

Enterococcus sp. = experiment: as above; type: cell-based; details: broth dilution, 18 hours at 35° C.
Procedure, shortened: (§1)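 Test organisms, which included recent clinical isolates resistant to methicillin, penicillin and/or vancomycin, were inoculated at 5×10^5 CFU/mL into Muller-Hinton II […] containing antibiotic at 64-0.06 μg/mL. Minimum inhibitory concentrations were then read as the lowest level inhibiting growth.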

Streptococcus sp. = experiment: as above; type: cell-based; details: broth dilution, 18 hours at 35° C.
Procedure, shortened: as §1

Staphylococcus sp. = experiment: as above; type: cell-based; details: broth dilution, 18 hours at 35° C.
Procedure, shortened: as §1

Compound: CC(C)CC(=O)OC1C(O)C(CO)OC(OC2C(CO)OC(Oc3ccc(CC4NC(=O)C(C(C)c5ccc(Cl)cc5)NC(=O)CNC(=O)C(CO)NC(=O)C(C(O)C5CNC(=N)N5C5OC(CO)C(O)C(O)C5O)NC(=O)C(C(O)C5CNC(=N)N5)NC4=O)cc3)C(O)C2O)C1O (stereo not drawn) [Example 262b, Cyclo[glycyl-4-chloro-β-methylphenylalanyl-O-[4-O-[3-O-(3-methylbutanoyl)hexopyranosyl]-hexopyranosyl]tyrosyl-3-(2-iminoimidazolidin-4-yl)seryl-3-(3-hexopyranosyl-2-iminoimidazolidin-4-yl)serylseryl]]
- median effective dose (ED50), Staphylococcus aureus-SMITH (GC 4543) [1]: 1.22 mg/kg
- MIC Escherichia coli (ATCC 25922) (Escherichia coli; Escherichia coli (ATCC 25922)): >64 µg/mL
- MIC Escherichia coli (GC 4559) (Escherichia coli; Escherichia coli (GC 4559)): >64 µg/mL
- MIC Escherichia coli (GC 4560) (Escherichia coli; Escherichia coli (GC 4560)): 1 µg/mL (≈ 0.707 µM)
- MIC Enterococcus avium (GC 4558) (Enterococcus sp.; Enterococcus avium (GC 4558)): 16 µg/mL (≈ 11.3 µM)
- MIC Enterococcus faecalis (ATCC 29212) (Enterococcus sp.; Enterococcus faecalis (ATCC 29212)): 32 µg/mL (≈ 22.6 µM)
- MIC Enterococcus faecalis (GC 4553) (Enterococcus sp.; Enterococcus faecalis (GC 4553)): 32 µg/mL (≈ 22.6 µM)
- MIC Enterococcus faecalis (GC 4554) (Enterococcus sp.; Enterococcus faecalis (GC 4554)): 32 µg/mL (≈ 22.6 µM)
- MIC Enterococcus faecium (GC 2243) (Enterococcus sp.; Enterococcus faecium (GC 2243)): 16 µg/mL (≈ 11.3 µM)
- MIC Enterococcus faecium (GC 4556) (Enterococcus sp.; Enterococcus faecium (GC 4556)): 16 µg/mL (≈ 11.3 µM)
- MIC Enterococcus faecium (GC 4557) (Enterococcus sp.; Enterococcus faecium (GC 4557)): 2 µg/mL (≈ 1.41 µM)
- MIC Enterococcus faecalis (ATCC 29212) (Enterococcus sp.; strain ATCC 29212): 32 µg/mL (≈ 22.6 µM)
- MIC Enterococcus faecalis (GC 2242) (Enterococcus sp.; strain GC 2242): 16 µg/mL (≈ 11.3 µM)
- MIC Enterococcus faecium (GC 2243) (Enterococcus sp.; strain GC 2243): 16 µg/mL (≈ 11.3 µM)
- MIC Enterococcus faecalis (GC 4552) (Enterococcus sp.; strain GC 4552): 32 µg/mL (≈ 22.6 µM)
- MIC Enterococcus faecalis (GC 4553) (Enterococcus sp.; strain GC 4553): 32 µg/mL (≈ 22.6 µM)
- MIC Enterococcus faecalis (GC 4554) (Enterococcus sp.; strain GC 4554): 32 µg/mL (≈ 22.6 µM)
- MIC Enterococcus faecium (GC 4556) (Enterococcus sp.; strain GC 4556): 16 µg/mL (≈ 11.3 µM)
- MIC Enterococcus faecium (GC 4557) (Enterococcus sp.; strain GC 4557): 2 µg/mL (≈ 1.41 µM)
- MIC Enterococcus avium (GC 4558) (Enterococcus sp.; strain GC 4558): 16 µg/mL (≈ 11.3 µM)
- MIC Streptococcus agalactiae (GC 4564) (Streptococcus sp.; strain GC 4564): 1 µg/mL (≈ 0.707 µM)
- MIC Streptococcus pyogenes (ID-3187) (Streptococcus sp.; strain ID-3187): 1 µg/mL (≈ 0.707 µM)
- MIC Coagulase Negative Staphylococcus (GC 4547) (Staphylococcus sp.): 2 µg/mL (≈ 1.41 µM)
- MIC Coagulase Negative Staphylococcus (GC 4548) (Staphylococcus sp.): 1 µg/mL (≈ 0.707 µM)
- MIC Coagulase Negative Staphylococcus (GC 4549) (Staphylococcus sp.): 1 µg/mL (≈ 0.707 µM)
- MIC Coagulase Negative Staphylococcus (GC 4551) (Staphylococcus sp.): 2 µg/mL (≈ 1.41 µM)
- MIC Staphylococcus aureus (ATCC 29213) (Staphylococcus sp.): 4 µg/mL (≈ 2.83 µM)
- MIC Staphylococcus aureus (GC 1131) (Staphylococcus sp.): 4 µg/mL (≈ 2.83 µM)
- MIC Staphylococcus aureus (GC 4541) (Staphylococcus sp.): 2 µg/mL (≈ 1.41 µM)
- MIC Staphylococcus aureus (GC 4542) (Staphylococcus sp.): 2 µg/mL (≈ 1.41 µM)
- MIC Staphylococcus aureus (GC 4544) (Staphylococcus sp.): 4 µg/mL (≈ 2.83 µM)
- MIC Staphylococcus aureus (GC 4545) (Staphylococcus sp.): 2 µg/mL (≈ 1.41 µM)
- MIC Staphylococcus aureus-SMITH (GC 4543) (Staphylococcus sp.): 1 µg/mL (≈ 0.707 µM)
- MIC Staphylococcus haemolyticus (GC 4546) (Staphylococcus sp.): 2 µg/mL (≈ 1.41 µM)
- MIC Staphylococcus aureus (ATCC 29213) (Staphylococcus sp.; strain ATCC 29213): 4 µg/mL (≈ 2.83 µM)
- MIC Staphylococcus aureus (GC 1131) (Staphylococcus sp.; strain GC 1131): 4 µg/mL (≈ 2.83 µM)
- MIC Staphylococcus aureus (GC 4541) (Staphylococcus sp.; strain GC 4541): 2 µg/mL (≈ 1.41 µM)
- MIC Staphylococcus aureus (GC 4542) (Staphylococcus sp.; strain GC 4542): 2 µg/mL (≈ 1.41 µM)
- MIC Staphylococcus aureus (GC 4544) (Staphylococcus sp.; strain GC 4544): 4 µg/mL (≈ 2.83 µM)
- MIC Staphylococcus aureus (GC 4545) (Staphylococcus sp.; strain GC 4545): 2 µg/mL (≈ 1.41 µM)
- MIC Staphylococcus haemolyticus (GC 4546) (Staphylococcus sp.; strain GC 4546): 2 µg/mL (≈ 1.41 µM)
- MIC Coagulase Negative Staphylococcus (GC 4547) (Staphylococcus sp.; strain GC 4547): 2 µg/mL (≈ 1.41 µM)
- MIC Coagulase Negative Staphylococcus (GC 4548) (Staphylococcus sp.; strain GC 4548): 1 µg/mL (≈ 0.707 µM)
- MIC Coagulase Negative Staphylococcus (GC 4549) (Staphylococcus sp.; strain GC 4549): 1 µg/mL (≈ 0.707 µM)
- MIC Coagulase Negative Staphylococcus (GC 4551) (Staphylococcus sp.; strain GC 4551): 2 µg/mL (≈ 1.41 µM)
- MIC Staphylococcus aureus-SMITH (GC 4543) (Staphylococcus sp.; strain SMITH GC 4543): 1 µg/mL (≈ 0.707 µM)
